From patent US20240139327A1, “PRODRUG COMPOUND, PREPARATION METHOD THEREFOR AND USE THEREOF” (MINGHUI PHARMACEUTICAL (HANGZHOU) LIMITED, priority 2021, published 2024)
Read-outs that look alike come from different tables or passages of the source.

Test: Skin-Pampa assay
Assay type: in vitro ADME
Settings: for Multiplicity (relative to the prototype drug): Skin-Pampa Pe of prodrug relative to its prototype drug
Procedure: • 1. Hydrate the Skin-Pampa membrane with hydration solution overnight. • 2. Dissolve each compound to be tested in DMSO and prepare 0.5 mL 20 mM solutions of the test compounds. Take 50 uL of solutions of the test compounds to the corresponding 5 mL of donor solution and mix well. • 3. Add 200 μL of the sample solution to the donor (bottom) plate and add 200 μL of acceptor solution into the wells of the acceptor (TOP) plate, and 12 wells are incubated in parallel for each sample. • 4. After 7 hours of incubation, 100 μL of the sample in each of the donor plate and 100 μL of the sample in each of the acceptor plate were sampled and then added with 200 μL of dilution (50% acetonitrile aqueous solution), mixed by vortexing and centrifuged, 200 μL of the supernatant was used for HPLC content detection. • 5. The Skin-Pampa parameters are calculated according to the following equation
[formula] [formula] • Pe—effective permeability coefficient; • VA— the volume of acceptor well (ml); • VD— the volume of donorwell (ml); • A—the filtration area (cm^2); • t—the incubation time (s); • tLAG—the steady-state time (s); • CD(t)—the concentration of the compound in donorwell at t; • CA(t)—the concentration of the compound in acceptor well at t; • CD(0)—the concentration at the compound in donorwell at 0.

[1] = Skin-Pampa, 7 hours of incubation, 12 wells in parallel, HPLC detection
[2] = Skin-Pampa, 7 hours of incubation, 12 wells in parallel, HPLC detection, read-out: Pe (effective permeability coefficient)

N#CCC1(n2cc(-c3ncnc4[nH]ccc34)cn2)CN(C2CCN(C(=O)c3ccnc(C(F)(F)F)c3F)CC2)C1 [Itacitinib, reference compound]
LogPe [1]: −6.88 ± 0.34 | Papp at 7 h, 200 µM [2]: 0.13 ± 0.17 ×10⁻⁶ cm/s

CC[C@@H]1CN(C(=O)NCC(F)(F)F)C[C@@H]1c1cnc2cnc3[nH]ccc3n12 [Upadacitinib, reference compound]
LogPe [1]: −6.96 ± 0.20 | Papp at 7 h, 200 µM [2]: 0.11 ± 0.05 ×10⁻⁶ cm/s

CCCCCCCCCC(=O)OCn1ccc2c(N(C)[C@H]3CN(C(=O)CC#N)CC[C@H]3C)ncnc21 [Example 8]
Multiplicity (relative to the prototype drug): 5.29-7.67 | LogPe [1]: −5.66 ± 0.08 | Papp at 7 h, 200 µM [2]: 2.19 ± 0.35 ×10⁻⁶ cm/s

C[C@@H]1CCN(C(=O)CC#N)C[C@@H]1N(C)c1ncnc2[nH]ccc12 [Tofacitinib, reference compound]
LogPe [1]: −6.45 ± 0.14 | Papp at 7 h, 200 µM [2]: 0.36 ± 0.12 ×10⁻⁶ cm/s

CCCCC(CC)CCC(=O)OCn1ccc2c1ncc1ncc([C@H]3CN(C(=O)NCC(F)(F)F)C[C@H]3CC)n12 (stereo partly shown) [Example 14]
Multiplicity (relative to the prototype drug): 6.81-8.83 | LogPe [1]: −6.09 ± 0.19 | Papp at 7 h, 200 µM [2]: 0.81 ± 0.28 ×10⁻⁶ cm/s

CCCCCCCCCCCC(=O)OCn1ccc2c(N(C)[C@H]3CN(C(=O)CC#N)CC[C@H]3C)ncnc21 [Example 5]
Multiplicity (relative to the prototype drug): 6.88-8.15 | LogPe [1]: −5.56 ± 0.16 | Papp at 7 h, 200 µM [2]: 2.78 ± 1.13 ×10⁻⁶ cm/s

CCCCC(CC)CCC(=O)OCn1ccc2c(NC3C4CC5CC3CC(O)(C5)C4)c(C(N)=O)cnc21 (stereo not shown) [Example 13]
Multiplicity (relative to the prototype drug): 8.59-15.6 | LogPe [1]: −6.01 ± 0.19 | Papp at 7 h, 200 µM [2]: 1.07 ± 0.39 ×10⁻⁶ cm/s

CCCCCCCC(=O)OCn1ccc2c(N(C)[C@H]3CN(C(=O)CC#N)CC[C@H]3C)ncnc21 [Example 1]
Papp at 7 h, 200 µM (PAMPA): 1.57 ± 0.5 ×10⁻⁶ cm/s | LogPe (PAMPA, 7 h, 200 µM): −5.80 ± 0.11 | Multiplicity (relative to the prototype drug): 4.31-4.46

CN1C(C(=O)Nc2ccccn2)=C(O)c2ccccc2S1(=O)=O [Piroxicam, reference compound]
LogPe [1]: −5.73 ± 0.06 | Papp at 7 h, 200 µM [2]: 1.84 ± 0.24 ×10⁻⁶ cm/s

CCCCC(CC)CCC(=O)OCn1ccc2c(N(C)[C@H]3CN(C(=O)CC#N)CC[C@H]3C)ncnc21 (stereo partly shown) [Example 4]
Multiplicity (relative to the prototype drug): 8.25-8.92 | LogPe [1]: −5.50 ± 0.17 | Papp at 7 h, 200 µM [2]: 3.13 ± 1.15 ×10⁻⁶ cm/s

CCCCC(CC)CCC(=O)OCn1ccc2c(-c3cnn(C4(CC#N)CN(C5CCN(C(=O)c6ccnc(C(F)(F)F)c6F)CC5)C4)c3)ncnc21 (stereo not shown) [Example 15]
Multiplicity (relative to the prototype drug): 5.8-19.5 | LogPe [1]: −5.90 ± 0.20 | Papp at 7 h, 200 µM [2]: 1.26 ± 0.48 ×10⁻⁶ cm/s

NC(=O)c1cnc2[nH]ccc2c1N[C@@H]1[C@@H]2CC3C[C@H]1C[C@@](O)(C3)C2 [Peficitinib, reference compound]
LogPe [1]: −7.06 ± 0.33 | Papp at 7 h, 200 µM [2]: 0.11 ± 0.06 ×10⁻⁶ cm/s

CCCCCCCCC(=O)OCn1ccc2c(N(C)[C@H]3CN(C(=O)CC#N)CC[C@H]3C)ncnc21 [Example 7]
Multiplicity (relative to the prototype drug): 7.38-10.08 | LogPe [1]: −5.53 ± 0.08 | Papp at 7 h, 200 µM [2]: 2.98 ± 0.56 ×10⁻⁶ cm/s
